Laboratory results reported in BigSolDB 2.1.

CC1(C)O[C@@H]2[C@@H](CO[C@@]3(COS(N)(=O)=O)OC(C)(C)O[C@@H]23)O1
solubility (mole fraction)
Settings | 278.15 K | 283.15 K | 288.15 K | 293.15 K | 298.15 K | 303.15 K | 308.15 K | 313.15 K | 318.15 K | 323.15 K
in 2-butoxyethanol | 0.0541 | 0.0602 | 0.0676 | 0.0756 | 0.0849 | 0.0986 | 0.111 | 0.124 | 0.14 | 0.157
in 2-ethoxyethanol | 0.11 | 0.118 | 0.126 | 0.137 | 0.149 | 0.162 | 0.173 | 0.191 | 0.209 | 0.229
in 2-methoxyethanol | 0.149 | 0.156 | 0.165 | 0.176 | 0.187 | 0.198 | 0.212 | 0.228 | 0.245 | 0.263
in 2-propoxyethanol | 0.0726 | 0.0803 | 0.089 | 0.0981 | 0.109 | 0.121 | 0.134 | 0.15 | 0.167 | 0.187
in ethanol | 0.0169 | 0.0202 | 0.0252 | 0.0315 | 0.039 | 0.0478 | 0.0628 | 0.079 | 0.102 | 0.129
in isobutanol | 0.00375 | 0.004 | 0.00525 | 0.00684 | 0.00911 | 0.0121 | 0.0166 | 0.0225 | 0.0314 | 0.0441
in isopentanol | 0.00308 | 0.00401 | 0.0052 | 0.00684 | 0.00905 | 0.0119 | 0.0147 | 0.0197 | 0.0261 | 0.0353
in isopropanol | 0.00638 | 0.00814 | 0.0106 | 0.014 | 0.0186 | 0.0247 | 0.0299 | 0.0408 | 0.0594 | 0.0818
in methanol | 0.0401 | 0.0476 | 0.0569 | 0.0683 | 0.081 | 0.0951 | 0.112 | 0.131 | 0.148 | 0.174
in n-butanol | 0.00495 | 0.00629 | 0.00804 | 0.0103 | 0.0131 | 0.0172 | 0.0231 | 0.0298 | 0.0397 | 0.0538
in n-heptanol | 0.00256 | 0.00327 | 0.00425 | 0.0054 | 0.00686 | 0.00877 | 0.0116 | 0.015 | 0.0196 | 0.0256
in n-hexanol | 0.0029 | 0.00363 | 0.00496 | 0.00628 | 0.00807 | 0.0104 | 0.0138 | 0.018 | 0.0236 | 0.0312
in n-pentanol | 0.00373 | 0.00472 | 0.00601 | 0.00747 | 0.00969 | 0.0126 | 0.0157 | 0.0207 | 0.0272 | 0.0367
in n-propanol | 0.00715 | 0.00923 | 0.0116 | 0.0148 | 0.0187 | 0.0252 | 0.0333 | 0.0439 | 0.0591 | 0.0794
